Measured values published in US5576433A, “Fluorescent calcium indicators targeted to specific intracellular environments” (priority 1994, dated 1996).
Where two headings read alike, the source gives them in different places. Blank lines part the entries; values can stand above or below the compound they belong to.

Key:
[1] = read-out: apparent Kd for EGTA (assumed), cited from earlier work
[2] = Spectral properties (absorbance and fluorescence with and without calcium); assay type: physicochemical
[3] = pH sensitivity of the calcium dissociation constant (Table 2); assay type: binding; conditions: 100 mM KCl, 10 mM MOPS
Source text: The calcium dissociation constant of BAPTA-like calcium chelators and indicators is strongly affected by electron withdrawing effects of substituents on the BAPTA aromatic rings. The zwitterionic indicators described herein each contain an ionizable amine. The difference in electron withdrawing effects of the ionized and unionized amine could potentially communicate to BAPTA, creating a situation were the calcium affinity varied with pH. The design of PE3 and FFP18 was aimed at minimizing or eliminating this possibility by insulating the ionizable amine from the BAPTA ring with an aliphatic spacer containing one or more carbons. To test the effectiveness of this design, the calcium Kd of PE3 and FFP18 was measured at different pH values and compared to the values obtained for fura-2. […] Thus, the aim of the test was to determine whether the piperazine amino group gives the indicator increased pH sensitivity.
On page 36 of U.S. Pat. No. 4,603,209 (Tsien, et. al., 1987 Aug. 25), R2 is claimed as H, CH3, F, Cl, Br and […]. The R2 of PE3 and FFP18 is none of these claimed in that patent.

322 T lymphoma cells [4] = experiment: Leakage of indicator from loaded cells / drift of apparent baseline calcium; assay type: cell-based; conditions: for apparent baseline intracellular calcium / dye leakage (in words): cells loaded with AM ester 1 hour, HBSS with 1% fetal bovine serum
[5] = Magnesium Kd of indicator (Table 1); assay type: binding
Method: (§1) The excitation spectrum was recorded of 1 μM FFP18 in 2.5 ml of 130 mM KCl, 20 mM NaCl, 1 mM EGTA, 10 mM MOPS, pH 7.05 at 37° C. Then 25 μl of the solution was replaced with 25 μl of a solution containing 1 μM of that same dye, 111.2 mM MgC12, 12.2 mM EGTA, 10 mM MOPS, pH 7.05. This exchange yielded 1 mM free Mg^2+ 0.2 and 5 mM free Mg^2+ were obtained by successively exchanging 25.25 and 76.53 μl of the original solution with that of the latter solution containing the high concentration of Mg^2+. Emission was collected at 490 nm for fura-PE3 and 485 nm for FFP18, 4 nm band pass, and excitation 5 nm band pass.
as §1, with “1 μM PE3 in 2.5” for “1 μM FFP18 in 2.5”, “1 μM PE3, 111.2 mM” for “1 μM of that same dye, 111.2 mM”, “mM free Mg^2+. The 2 and 5” for “mM free Mg^2+ 0.2 and 5”, “free Mg^2+ concentrations were obtained” for “free Mg^2+ were obtained”

[6] = Calcium Kd of indicator in solution (Table 1); assay type: binding
322 T lymphoma cells [7] = experiment: Response of PE3 loaded cells to changes in intracellular calcium
PTK1 cells = conditions: cited from earlier work
[8] = system: intracellular [Ca^2+ ] transients; experiment: Recorded versus calculated calcium influx; assay type: cell-based; conditions: 4 cells
Method: FIG. 13 and FIG. 13A show the relationship between the intracellular [Ca^2+ ] transients over time for fura-2 and FFP18. In Example 7, the relationship between the intracellular [Ca^2+ ] transients reported by FFP18 or fura-2 and calculated [Ca^2+ ] transients representing calcium influx are shown as a function of time. The amount of Ca^2+ entering the cell across the membrane was calculated by integrating the inward current signal and converting the charge to moles of Ca^2+ per cell volume. This [Ca^2+ ] was divided by the average buffering capacity of these cells. […] The [Ca^2+ ] transients reported by the calcium indicators are shown by the more noisy traces.
The amount of Ca^2+ entering the cell across the membrane was calculated by integrating the inward current signal and converting the charge to moles of Ca^2+ per cell volume. This [Ca^2+ ] was divided by the average buffering capacity of these cells. […]
In 4 cells where the [Ca^2+ ] transient was recorded using fura-2, the magnitude of the recorded and calculated increases in [Ca^2+ ] were similar. The ratio of calcium influx measured using fura-2 to the calcium influx calculated from the integral of the current at the 200 msec time point gives a value of 0.9+/-0.05 [nM (recorded)/nM(calculated)].

Tradescantia cells = conditions: within a short time; Hepler and Poenie, unpublished; cited from earlier work
[9] = system: calcium transient during mitosis; conditions: Kao et al.; cited from earlier work
muscle calcium = conditions: Hollingsworth and Baylor; cited from earlier work
[10] = system: leakage and compartmentalization of fura-2; conditions: cited from earlier work
[11] = pH 6.9, 20° C., read-out: calcium Kd at pH 6.9
[12] = pH 7.3, 20° C., read-out: calcium Kd at pH 7.3

Structure (SMILES): O=C(O)CN(CCOCCOCCN(CC(=O)O)CC(=O)O)CC(=O)O [EGTA, ethylene glycol bis(beta-aminoethyl ether)N,N,N'N'tetraacetic acid]
Kd ([1]; pH 6.9, 20° C.): 0.594 µM | Kd ([1]; pH 7, 20° C.): 0.0954 µM

Fluorescence Quantum Efficiency, Ca bound ([2]; Ca bound): 0.27 | Peak Absorption Wavelength, Ca bound ([2]; Ca bound): 335 nm | Peak Emission Wavelength, Ca bound ([2]; Ca bound): 495 nm | Fluorescence Quantum Efficiency, Free anion ([2]; Free anion): .043 | Peak Absorption Wavelength, Free anion ([2]; Free anion): 364 nm | Peak Emission Wavelength, Free anion ([2]; Free anion): 508 nm | absorbance, excitation, emission and quantum efficiency (in words) ([2]; presence and absence of calcium): all typical of fura-2 | Kd [3, 11]: 0.269 ± 0.003 µM | Kd [3, 12]: 0.204 ± 0.004 µM | Kd ([5]; 20° C.): 4300 µM | Kd ([5]; 37° C.): 4000 µM | calcium binding affinity compared with fura-2 (in words) [6]: somewhat weaker than that of fura-2 | Kd ([6]; 20° C., 100 mM KCl, 10 mM MOPS, pH 7.3 (footnote c)): 0.204 µM | Kd ([6]; 37° C., 130 mM KCl, 20 mM NaCl, 1 mM free MgCl2, MOPS, pH 7.05 (footnote a)): 0.209 µM
Structure (SMILES): O=C(O)CN1CCN(C(=O)CCc2ccc(N(CC(=O)O)CC(=O)O)c(OCCOc3cc4cc(-c5ncc(C(=O)O)o5)oc4cc3N(CC(=O)O)CC(=O)O)c2)CC1 [PE3]
leakage and compartmentalization (in words) (322 T lymphoma cells [4]): resists leakage and compartmentalization | apparent baseline intracellular calcium / dye leakage (in words) (322 T lymphoma cells [4]): small change in baseline intracellular calcium levels reflects the lower leakage rate out of the cell | fluorescence response at 340 nm to increase in calcium (322 T lymphoma cells [7]; after Concanavalin A): fluorescense at 340 nm increases | fluorescence response at 380 nm to increase in calcium (322 T lymphoma cells [7]; after Concanavalin A): fluorescense at 380 nm decreases | fluorescence response at 340 nm and 380 nm (322 T lymphoma cells [7]; after ionomycin): even greater response of the indicator at 340 nm and 380 nm | fluorescence after reducing free calcium with EGTA (322 T lymphoma cells [7]; digitonin lysed, EGTA added): fluorescense at 380 nm now becomes much brighter while the fluorescense at 340 becomes dim

Structure (SMILES): CC(=O)OCOC(=O)CN(CC(=O)OCOC(C)=O)c1ccc(C)cc1OCCOc1cc2cc(-c3ncc(C(=O)OCOC(C)=O)o3)oc2cc1N(CC(=O)OCOC(C)=O)CC(=O)OCOC(C)=O [fura-2/AM]
loading in cells (in words) (PTK1 cells): consistent failure

Kd [3, 11]: 0.216 ± 0.004 µM | Kd [3, 12]: 0.161 ± 0.002 µM
Structure (SMILES): Cc1ccc(N(CC(=O)O)CC(=O)O)c(OCCOc2cc3cc(-c4ncc(C(=O)O)o4)oc3cc2N(CC(=O)O)CC(=O)O)c1 [fura-2]
magnitude of recorded versus calculated increase in [Ca^2+ ] (in words) [8]: similar | ratio of calcium influx recorded by indicator to calcium influx calculated ([8]; calculated from integral of the current at the 200 msec time point (time point stated for fura-2)): 0.9+/-0.05 nM (recorded)/nM(calculated) | transfer of cytosolic indicator to vacuole (in words) (Tradescantia cells): virtually all of the cytosolic indicator was transferred to the vacuole | apparent baseline intracellular calcium / dye leakage (in words) (322 T lymphoma cells [4]): continuous increase in apparent intracellular calcium levels | detection of calcium transient during mitosis [9]: seldom seen | ability to follow rapid changes in muscle calcium (muscle calcium): not fast enough to follow rapid changes in muscle calcium and was unable to track calcium levels at their peak

Structure (SMILES): CCCN(CCC)S(=O)(=O)c1ccc(C(=O)O)cc1 [probenecid]
effect on leakage and compartmentalization of fura-2 [10]: help reduce leakage and compartmentalization

Structure (SMILES): Cc1ccc(N(CC(=O)O)CC(=O)O)c(OCCOc2cc(-c3c4ccc(=[N+](C)C)cc-4oc4cc(N(C)C)ccc34)ccc2N(CC(=O)O)CC(=O)O)c1 [rhod-2]
transfer of cytosolic indicator to vacuole (in words) (Tradescantia cells): differed in this respect

Structure (SMILES): O=C1C(CC[S+]([O-])c2ccccc2)C(=O)N(c2ccccc2)N1c1ccccc1 (stereo not shown) [sulfinpyrazone]
effect on leakage and compartmentalization of fura-2 [10]: help reduce leakage and compartmentalization
